Experimental data reported in the NIST ThermoML archive (doi:10.1021/acs.jced.8b00585).
Numbers after ± are expanded uncertainties.

Conditions: Liquid; for Critical pressure: Direct measurement; for Critical temperature: Visual observation in an unstirred cell

| Compound | Critical pressure | Critical temperature |
| --- | --- | --- |
| CCCCCCCCCC [decane] | 2106 ± 15 kPa | 617.7 ± 0.4 K |
| CCCCCCC [heptane] | 2736 ± 17 kPa | 540.1 ± 0.4 K |
| CCCCCC [hexane] | 3033 ± 18 kPa | 507.8 ± 0.4 K |
| CCCCCCCCC [nonane] | 2278 ± 16 kPa | 594.5 ± 0.4 K |
| CCCCCCCC [octane] | 2496 ± 16 kPa | 568.9 ± 0.4 K |
| CCCCO [butan-1-ol] | 4406 ± 22 kPa | 563 ± 0.4 K |
